EP4703354A1, “COMPOUND AS CCR6 ANTAGONIST, AND PHARMACEUTICAL COMPOSITION AND USE THEREOF” (Wuhan Createrna Science and Technology Co.,Ltd., priority 2023, dated 2024)

Assays:
human CCR6 = target: T1, human CCR6 (Homo sapiens, UniProt P51684); experiment: human CCR6 calcium flux activity (FLIPR, HEK293 cells stably expressing human CCR6, CCL20 stimulation); assay type: cell-based; details: for IC50: HEK293 cells stably expressing human CCR6, EC80 human MIP-3 alpha/CCL20, read-out: CCR6 inhibitory activity, IC50; for CCR6 selectivity: ratio of CXCR2 IC50 to CCR6 IC50
T1 construct: expressed in transfected cells; host or cells: HEK293
T1 sequence (P51684 1-374): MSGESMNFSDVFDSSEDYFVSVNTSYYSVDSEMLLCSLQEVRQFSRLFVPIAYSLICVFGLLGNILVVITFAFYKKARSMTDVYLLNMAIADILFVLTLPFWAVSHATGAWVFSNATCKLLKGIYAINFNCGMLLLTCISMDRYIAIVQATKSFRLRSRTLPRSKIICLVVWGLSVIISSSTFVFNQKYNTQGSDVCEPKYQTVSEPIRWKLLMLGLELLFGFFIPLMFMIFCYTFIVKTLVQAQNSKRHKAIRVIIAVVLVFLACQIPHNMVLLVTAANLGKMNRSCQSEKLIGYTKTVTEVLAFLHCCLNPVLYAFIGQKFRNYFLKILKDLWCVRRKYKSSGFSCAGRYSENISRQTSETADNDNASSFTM
Method in brief: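 Compounds preincubated with Fluo-4 Direct-loaded cells 50 min at 37 °C, then 10 min at room temperature, before CCL20 challenge at EC80. Fluorescence (ex 494/em 516 nm) recorded 90 s; max−min signal gives inhibition, four-parameter fit yields IC50.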

human CXCR2 = target: T2, human CXCR2 (Homo sapiens, UniProt P25025); experiment: human CXCR2 calcium flux activity (FLIPR, HEK293 cells stably expressing human CXCR2, IL-8 stimulation); assay type: cell-based; details: HEK293 cells stably expressing human CXCR2, EC80 human IL-8; read-out: CXCR2 inhibitory activity, IC50
T2 construct: expressed in transfected cells; host or cells: HEK293
T2 sequence (P25025 1-360): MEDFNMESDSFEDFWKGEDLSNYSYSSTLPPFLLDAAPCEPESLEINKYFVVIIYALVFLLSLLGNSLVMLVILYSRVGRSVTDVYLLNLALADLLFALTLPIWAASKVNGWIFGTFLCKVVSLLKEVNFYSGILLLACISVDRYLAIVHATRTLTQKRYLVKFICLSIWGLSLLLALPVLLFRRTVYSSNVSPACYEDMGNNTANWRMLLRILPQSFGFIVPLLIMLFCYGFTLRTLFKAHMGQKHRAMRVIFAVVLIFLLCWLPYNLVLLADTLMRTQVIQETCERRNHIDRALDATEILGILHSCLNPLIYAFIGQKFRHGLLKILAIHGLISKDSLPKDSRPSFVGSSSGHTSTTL
Description: The activity of the compounds was evaluated using HEK293 cells stably expressing human CXCR2 via the FLIPR platform. A 384-well black cell culture plate (Greiner, 781946) was used, with a seeding density of 20,000 cells/well, and incubated overnight at 37°C in a 5% CO2 incubator. The culture medium in the cell plate wells was removed, and 20 µL of Fluo-4 Direct™ Calcium Assay Buffer (Invitrogen, F10471, Component C), 20 µL of 2× Fluo-4 Direct™ Calcium Assay Reagent (Invitrogen, F10471, Component A) working solution, and 10 µL of 6× test compound working solution were sequentially added to each well. The cell plate was incubated in a 37 °C, 5% CO2 incubator for 50 min, followed by a 10 min incubation at room temperature. Additionally, a 6×EC80 human IL-8 (Sigma, SRP3311) working solution was prepared. After the incubation was completed, 10 µL/well of the 6×EC80 human IL-8 working solution was transferred to the corresponding cell wells using a FLIPR instrument, and the fluorescence signal changes at an excitation wavelength of 494 nm and an emission wavelength of 516 nm were recorded over 130 s. The difference between the maximum fluorescence signal (RFUMax) and the minimum fluorescence signal (RFUMin) was used as the output signal. The compound inhibition rate and the log value of the compound concentration were calculated, and a four-parameter fitting analysis was performed using GraphPad Prism 8 software to obtain the IC50 value of the test compound. Table 1. Inhibitory activity data of compounds against CCR6 and CXCR2

[1] = in vivo pharmacokinetic study in SD rats; details: male, rat, plasma; for bioavailability: 1 mg/kg PO vs 1 mg/kg IV, read-out: Oral bioavailability F (%); for AUC(0-t) / Cmax / half-life: 1 mg/kg
Method in brief: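 Male SD rats (180-200 g), 3 per route: single fasted oral gavage in 1% Tween 80 or tail-vein IV bolus in 50% PEG400. Orbital blood into EDTA-K2 sampled to 8 h; plasma analysed and PK parameters derived by non-compartmental analysis.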

Row | Compound | IC50 (human CCR6) | CCR6 selectivity (human CCR6) | IC50 (human CXCR2) | bioavailability [1] | AUC(0-t) ([1]; IV) | Cmax ([1]; IV) | AUC(0-t) ([1]; PO) | Cmax ([1]; PO) | half-life ([1]; PO) | half-life ([1]; IV)
1 | Cc1cccnc1[C@H](Nc1c(Nc2ccnc(C(=O)N(C)C)c2O)c(=O)c1=O)C1(C)CCCC1 [compound 018, (R)-3-hydroxy-N,N-dimethyl-4-((2-(((1-methylcyclopentyl)(3-methylpyridin-2-yl)methyl)amino)-3,4-dioxocyclobut-1-en-1-yl)amino)picolinamide] | 0.011 µM | 8363.5 | 92 µM | 49.1% | 1160 ng·h/mL | 2240 ng/mL | 1710 ng·h/mL | 920 ng/mL | 4.3 h | –
2 | CN(C)C(=O)c1nccc(Nc2c(N[C@@H](c3nc(F)ccc3F)C3(C)CCCC3)c(=O)c2=O)c1O [compound 023, (R)-4-((2-(((3,6-difluoropyridin-2-yl)(1-methylcyclopentyl)methyl)amino)-3,4-dioxocyclobut-1-en-1-yl)amino)-3-hydroxy-N,N-dimethylpicolinamide] | 0.0009 µM | 227.0 | 0.204 µM | 30.5% | 2020 ng·h/mL | 4130 ng/mL | 616 ng·h/mL | 335 ng/mL | 2.08 h | –
3 | CN(C)C(=O)c1nccc(Nc2c(N[C@@H](c3cccc(C(F)F)n3)C3(C)CCCC3)c(=O)c2=O)c1O [compound 107, (R)-4-((2-(((6-(difluoromethyl)pyridin-2-yl)(1-methylcyclopentyl)methyl)amino)-3,4-dioxocyclobut-1-en-1-yl)amino)-3-hydroxy-N,N-dimethylpicolinamide] | 0.0038 µM | 196.0 | 0.745 µM | – | – | – | – | – | – | –
4 | CN(C)C(=O)c1nccc(Nc2c(N[C@@H](c3nc(C(F)F)ccc3F)C3(C)CCCC3)c(=O)c2=O)c1O [compound 109, (R)-4-((2-(((6-(difluoromethyl)-3-fluoropyridin-2-yl)(1-methylcyclopentyl)methyl)amino)-3,4-dioxocyclobut-1-en-1-yl)amino)-3-hydroxy-N,N-dimethylpicolinamide] | 0.0024 µM | 55.5 | 0.133 µM | 61.8% | 786 ng·h/mL | 3140 ng/mL | 485 ng·h/mL | 264 ng/mL | 2.07 h | 0.5 h
5 | CN(C)C(=O)c1nccc(Nc2c(N[C@@H](c3nc(F)ccc3Cl)C3(C)CCCC3)c(=O)c2=O)c1O [compound 025, (R)-4-((2-(((3-chloro-6-fluoropyridin-2-yl)(1-methylcyclopentyl)methyl)amino)-3,4-dioxocyclobut-1-en-1-yl)amino)-3-hydroxy-N,N-dimethylpicolinamide] | 0.0028 µM | 282.4 | 0.791 µM | – | – | – | – | – | – | –
6 | CN(C)C(=O)c1nccc(Nc2c(N[C@@H](c3nc(CF)ccc3F)C3(C)CCCC3)c(=O)c2=O)c1O [compound 094, (R)-4-((2-(((3-fluoro-6-(fluoromethyl)pyridin-2-yl)(1-methylcyclopentyl)methyl)amino)-3,4-dioxocyclobut-1-en-1-yl)amino)-3-hydroxy-N,N-dimethylpicolinamide] | 0.0011 µM | 174.73 | 0.192 µM | 22.8% | 1210 ng·h/mL | 4460 ng/mL | 276 ng·h/mL | 208 ng/mL | 2.18 h | 0.37 h
7 | Cc1cc(F)cnc1[C@H](Nc1c(Nc2ccnc(C(=O)N(C)C(C)C)c2O)c(=O)c1=O)C1(C)CCCC1 [compound 066, (R)-4-((2-(((5-fluoro-3-methylpyridin-2-yl)(1-methylcyclopentyl)methyl)amino)-3,4-dioxocyclobut-1-en-1-yl)amino)-3-hydroxy-N-isopropyl-N-methylpicolinamide] | 0.019 µM | 2522.7 | 47.9 µM | – | – | – | – | – | – | –
8 | Cc1ccc(C)c([C@H](Nc2c(Nc3ccnc(C(=O)N(C)C)c3O)c(=O)c2=O)C2(C)CCCC2)n1 [compound 051, (R)-4-((2-(((3,6-dimethylpyridin-2-yl)(1-methylcyclopentyl)methyl)amino)-3,4-dioxocyclobut-1-en-1-yl)amino)-3-hydroxy-N,N-dimethylpicolinamide] | 0.0127 µM | 2469.1 | 31.4 µM | – | – | – | – | – | – | –
9 | CNC(=O)c1c(Cl)ccc(Nc2c(N[C@@H](c3ncccc3C)C3(C)CCCC3)c(=O)c2=O)c1O [compound 064, (R)-6-chloro-2-hydroxy-N-methyl-3-((2-(((1-methylcyclopentyl)(3-methylpyridin-2-yl)methyl)amino)-3,4-dioxocyclobut-1-en-1-yl)amino)benzamide] | 0.0065 µM | 1730.2 | 11.2 µM | – | – | – | – | – | – | –
10 | CN(C)C(=O)c1nccc(Nc2c(N[C@@H](c3nc(Cl)ccc3F)C3(C)CCCC3)c(=O)c2=O)c1O [compound 053, (R)-4-((2-(((6-chloro-3-fluoropyridin-2-yl)(1-methylcyclopentyl)methyl)amino)-3,4-dioxocyclobut-1-en-1-yl)amino)-3-hydroxy-N,N-dimethylpicolinamide] | 0.0015 µM | 1163.3 | 1.75 µM | 33.1% | 1800 ng·h/mL | 3890 ng/mL | 596 ng·h/mL | 380 ng/mL | 2.33 h | –
